Reference: US9687486B2, “Methods of treating atherosclerosis or myeloproliferative neoplasms by administering a lyn kinase activator” (THE TRUSTEES OF COLUMBIA UNIVERSITY IN THE CITY OF NEW YORK, priority 2012, dated 2017)
“Also recorded” adds a separate entry of the source.

Experiments:
[1] = system: ulcer; details: rats, 10 mg/kg, oral; Lipinski et al. 1980; cited from earlier work
[2] = system: BM cells derived from Jak2+/VF/Vavcre mice; test: Megakaryocyte colony formation assay, BM cells from Jak2+/VF/Vavcre mice; format: cell-based, mouse; details: tolimidone 10 μM, 14 days
Protocol: FIG. 22. BM cells from Jak^2+/VF/Vav^cre mice were plated and cultured for 14 days in the presence of IL-3 ([…]) and TPO (1 ng/mL) with or without tolimidone (10 μM). Megakaryocyte (Mk) colony was identified by cell morphology. Colony number/plate (a); Mk count/colony (b); and representative Mk colonies (c). Arrows indicate the projected proplatelet like structures from mature megakaryocytes. *p<0.05 between vehicle and tolimidone (10 μM).
In order to assess this possibility, megakaryocyte colony formation assay with BM cells derived from Jak2+/VF/Vavcre mice were performed. […] Moreover, many of the mature megakaryocytes in the vehicle group started to form long-projected cell structures resembling proplatelets.

[3] = system: platelets; test: Platelet count in Abcg4−/− mice with tolimidone; format: in vivo, mouse
[4] = system: c-MPL(W515L) positive megakaryocyte progenitor cells; format: cell-based, mouse; details: tolimidone 10 μM, 10 days, IL-3 and TPO 1 ng/mL
Protocol: FIG. 21. BM cells of the recipient transplanted with BM cells expressing c-MPL(W515) were cultured for 10 days in the presence of IL-3 ([…]) and TPO (1 ng/mL) with or without tolimidone (10 μM). Megakaryocyte (Mk) colonies expressing c-MPL (W515) were identified by cell morphology and GFP expression. Identity of MK was also confirmed by staining for acetylcholinesterase activity. Count of Mk colonies (a); Mk count per colony (b); total colony per plate (c); fluorescence microscopy of a single colony (d). *p<0.05 between vehicle and tolimidone treatment.
Long-term, repeated rHDL infusions are less desirable relative to orally bioavailable small molecule compounds in treatment of chronic diseases such as MPNs. […] To assess the possibility that tolimidone limits megakaryopoiesis and thrombocytosis induced by c-MPL(W515), megakaryocyte colony formation assays with BM cells derived from mice with retroviral co-expression of c-MPL(W515L) and GFP in BM cells were used. […] Under the conditions of low TPO (1 ng/ml), the majority of cell colonies were non-megakaryocyte colonies.

[5] = system: c-MPL; test: Cell surface c-MPL levels in MkPs by flow cytometry; format: cell-based, mouse
Protocol: Detection of c-MPL from in vivo and in vitro experiments was performed as follows. After harvesting BM progenitor cells, RBCs were lysed and the cells were then resuspended in FACS buffer. Cells were then stained with a cocktail of lineage markers to allow negative selection of BM progenitor cells (Sca1, CD127, CD45R, CD19, CD11b, CD3e, TER-119, CD2, CD8, CD4, and Ly-6C/G; all FITC; eBioscience) and progenitor cell markers, ckit, CD16/CD32 (FcγRII/III), CD34, CD41 and c-MPL or isotype control and allowed to stain on ice for 30 mins. Cells were then washed and stained with a fluorescently conjugated secondary anti-rabbit antibody to detect the anti-c-MPL for a further 30 mins on ice. After this the cells were washed, resuspended in FACS buffer and run on the LSRII. MEPs were identified as lin^− ckit^+CD16/CD32^loCD34^loCD41^−, while MkPs were identified as lin^−ckit^+CD16/CD32^loCD34^loCD41^+.

[6] = system: MkPs; test: MkP proliferation by EdU incorporation; format: cell-based, mouse; details: in the presence of TPO
Protocol: FIG. 3. Shown are results all from WT, Abcg4^-/- or Lyn^-/- MkPs (n=4). (A) Quantification of tyrosine-phosphorylated c-CBL in response to TPO. (B) Tyrosine-phosphorylated c-CBL levels 5 min after TPO treatment and with or without pretreatment with CD (3 mM), CD-chol (3 mM CD) for 30 min or rHDL (20 μg apoA-I/ml) for 2 hours. (C) Tyrosine-phosphorylated c-CBL with or without 5 min TPO treatment or SU6656 pretreatment (10 μg/ml for 2 h). (D) Cell surface c-MPL with or without TPO or SU6656 treatment for 2 h. (E) Tyrosine-phosphorylated c-CBL (5 min in response to TPO). (F) cell surface c-MPL (2 h TPO treatment) with or without pretreatment with CD-chol (3 mM CD) for 30 min. (G) 16 h EdU incorporation in the presence of TPO and with or without CD (3 mM), CD-Chol (3 mM CD) pretreatment for 30 min or rHDL (20 μg/ml) for 16 […]-5 and p-ERK1/2 levels with or without TPO for 10 minutes. TPO was 30 ng/ml for all the assays shown. Error bars are S.E.M. *P<0.05 WT vs Abcg4^-/- TPO and ^P<0.05 for treatment effect. Blood leukocytes and BM HSPCs were stained and analyzed or sorted as described (Murphy, A. J. et al. 2011). Briefly, BM cells from the mouse femurs and tibias were stained with a cocktail of antibodies to lineage committed cells (CD45R, CD19, CD11b, CD3e, TER-119, CD2, CD8, CD4, Ly-6C/G: All FITC, eBioscience), antibodies to Sca1 (Pacific Blue) and ckit (APC Cy7) to identify HSPC populations and LSK (lin-, Sac1+ and ckit+) cells, and antibodies to CD16/CD32 (FcγRII/III), CD34 to separate CMP (lin-, Sca1-, ckit+, CD34int, […] (lin-, Sca1-, ckit+, CD34int, […] (lin-, Sca1-, ckit+, CD34lo, FcγRII/IIIlo). For DNA content analysis (G2M phase), BM cells were fixed, and stained with DAPI (Invitrogen) prior to flow cytometry analysis. To determine in vivo cell proliferation, EdU (Invitrogen) was injected into mice via the tail vein 24 hours prior to being sacrificed. Cells were immunostained as described above in preparation for flow cytometry. Cells were then fixed and permeabilized using 0.01% saponin (w/v; Fluka) and 1% FCS (v/v) in IC fixation buffer (eBiosciences) for 30 minutes. Cells were then washed and stained with Alexa Fluor-conjugated azides using the Click-iT system (Invitrogen). Proliferation was quantified as percentage of EdU^+ cells by flow cytometry.

[7] = molecular target: Lyn tyrosine kinase (Homo sapiens, UniProt P07948); details: Saporito et al. 2012; cited from earlier work
Sequence of Lyn tyrosine kinase (P07948 whole entry): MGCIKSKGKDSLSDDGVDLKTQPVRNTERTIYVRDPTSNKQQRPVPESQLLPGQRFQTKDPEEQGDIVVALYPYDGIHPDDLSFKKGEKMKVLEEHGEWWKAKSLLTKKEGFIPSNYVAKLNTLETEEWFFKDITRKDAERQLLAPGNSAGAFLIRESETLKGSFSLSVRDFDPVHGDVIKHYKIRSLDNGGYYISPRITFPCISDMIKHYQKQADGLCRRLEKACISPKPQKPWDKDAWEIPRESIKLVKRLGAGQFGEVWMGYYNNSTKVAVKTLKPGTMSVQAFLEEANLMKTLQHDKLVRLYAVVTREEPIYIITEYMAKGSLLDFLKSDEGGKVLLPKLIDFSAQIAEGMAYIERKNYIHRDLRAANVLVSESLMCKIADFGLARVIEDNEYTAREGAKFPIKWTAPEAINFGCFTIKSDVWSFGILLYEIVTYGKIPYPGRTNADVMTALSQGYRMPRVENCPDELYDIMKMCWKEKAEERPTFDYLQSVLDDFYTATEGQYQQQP

[8] = system: c-CBL; test: c-Cbl tyrosine phosphorylation in MkPs in response to TPO, flow cytometry; format: cell-based, mouse
Protocol: BM progenitor cells were stimulated with TPO at the indicated concentration for the specified period of time at 37° C. and then immediately diluted with ice-cold buffer and placed on ice to prevent further changes in phosphorylation. Cells were then centrifuged and the pellet resuspended in BD fix buffer (BD Biosciences) for 10 mins on ice. The cells were washed with BD flow cytometry staining buffer, centrifuged and then resuspended in BD cytofix/perm buffer III for 20 mins. After this the cells were washed and resuspended in BD staining buffer and incubated with lineage (Sca1, CD127, CD45R, CD19, CD11b, CD3e, TER-119, CD2, CD8, CD4, and Ly-6G; all FITC; eBioscience) and progenitor cell markers, ckit, CD16/CD32 (FcγRII/III), CD34, CD41 and anti-phospho-c-Cbl ([…]/[…]; BD biosciences) or an isotype control for 30 mins on ice. The cells were then washed, resuspended in FACS buffer and run on an LSRII. Phosphorylated c-Cbl was normalized against isotype control staining.

Cc1cccc(Oc2cnc(=O)[nH]c2)c1 [Tolimidone]
anti-ulcer activity [1]: oral-active anti-ulcer activity | proportion of megakaryocytes that generated proplatelets [2]: reduced | number of megakaryocyte colonies ([2]; IL-3 and TPO 1 ng/mL): decreased | number of megakaryocytes in each colony ([2]; IL-3 and TPO 1 ng/mL): decreased | platelet count [3]: reduces | GFP-positive megakaryocytes in each colony [4]: significantly reduced | number of GFP-positive megakaryocyte colonies [4]: significantly reduced | total number of colonies [4]: did not significantly affect | cell surface c-MPL levels ([5]; Abcg4−/− MkPs, TPO 30 ng/ml): reverses; also recorded: reduces | cell surface c-MPL levels ([5]; Abcg4−/− MkPs, tolimidone 10 μM and TPO for 2 h (FIG. 16)): significantly reduced | effects in Lyn−/− MkPs (c-MPL, c-Cbl phosphorylation, proliferation) ([5]; Lyn−/− MkPs, expected): no effects | cell surface c-MPL levels ([5]; WT MkPs, TPO 30 ng/ml): decreased | cell surface c-MPL levels ([5]; WT and Abcg4−/− MkPs, BM cells of hypercholesterolemic Ldlr−/− mice, Tolimidone 10 μM, 30 ng/ml TPO, 2 hours (FIG. 20)): significantly reduced | MkP proliferation ([6]; Abcg4−/− MkPs): decreases | MkP proliferation ([6]; WT MkPs): decreased | Lyn kinase activity [7]: selectively increases; also recorded: potent and selective | c-CBL tyrosine phosphorylation ([8]; Abcg4−/− MkPs): increases | c-CBL tyrosine phosphorylation ([8]; WT MkPs): increased
